The source of these data is patent US20230242871A1, “GENERATION OF PRIMORDIAL GERM CELLS AND METHODS OF USING THE SAME” (The Board of Trustees of the Leland Stanfor Junior …, priority 2020, published 2023).

The test concerns NANOS3-mCherry hESCs. Description: PGC differentiation of NANOS3-mCherry hESCs, flow cytometry for NANOS3-mCherry fluorescent reporter expression. The format is cell-based, human. The following applies: for efficiency upon SCF/EGF subtraction: SCF/EGF subtraction from D0.5-1.5; for efficiency upon SCF/EGF subtraction / effect of absence of SCF and EGF on PGC differentiation / requirement on the D0.5-D1.5 interval: FIG. 5C; for effect of absence of SCF and EGF on PGC differentiation: absence in the same time window (24 hrs at day 2); for requirement on the D0.5-D1.5 interval: posterior epiblast differentiation into PGCs. An excerpt: In the NANOS3-mCherry hESC line, a 2A-mCherry fluorescent reporter was inserted immediately downstream of the NANOS3 gene without disrupting its coding sequence (Irie et al., 2014). In the SOX17-GFP hESC line, a GFP fluorescent reporter was inserted immediately after the SOX17 start codon, thus functionally invalidating one SOX17 allele (Wang et al., 2011). In the NANOG-2A-YFP hESC line, Cas9 RNP/AAV6-based genome editing (Martin et al., 2019) was used to insert a 2A-iCaspase9-2A-YFP fluorescent reporter immediately downstream of the NANOG gene without disrupting the NANOG coding sequence.
hPSC differentiation into PGCs. Undifferentiated hPSCs were maintained in mTeSR1 + 1% penicillin/streptomycin and enzymatically passaged (Accutase, 1:8-1:12 split) for differentiation. After overnight recovery in mTeSR1 + Thiazovivin (ROCK inhibitor, 5 µM), the following morning, hPSCs were briefly washed (DMEM/F12) and differentiated into posterior epiblast for 12 hours (100 ng/mL Activin + 3 µM CHIR99021 + 10 µM Y-27632) in aRB27 basal media, which comprised Advanced RPMI 1640 medium supplemented with 1% B27 supplement, 0.1 mM non-essential amino acids (NEAA), 100 U/ml Penicillin + 0.1 mg/ml Streptomycin, and 2 mM L-Glutamine (Kobayashi et al., 2017). Subsequently, […], […], […], 100 ng/mL SCF, 50 ng/mL EGF, 1 µM XAV939, and 10 µM Y-27632 for 24 hours (all in aRB27 basal media). For comparison, published PGC differentiation protocols (Sasaki et al., 2015; Kobayashi et al., 2017) were performed as described previously.
Flow cytometry and fluorescence-activated cell sorting (FACS) for cell-surface marker expression. hPSCs or their differentiated derivatives were dissociated using TrypLE Express (Gibco), were washed off the plate with FACS buffer (PBS + 0.1% BSA fraction V [Gibco] + 1 mM EDTA [Gibco] + 1% penicillin/streptomycin [Gibco]) and were pelleted by centrifugation (5 mins, 4° C.). Subsequently, cell pellets were directly resuspended in FACS buffer containing pre-diluted primary antibodies (listed below), thoroughly triturated to ensure a single cell suspension, and primary antibody staining was conducted for 30 mins on ice. Afterwards, cells were washed with an excess of FACS buffer and pelleted again, and this was conducted one more time. Finally, washed cell pellets were resuspended in FACS buffer containing 1.1 µM DAPI (Biolegend), and were strained through a 35 µm filter. Flow cytometry and sorting was conducted on a BD FACSAria II (Stanford Stem Cell Institute FACS Core).

For the compound `O=c1[nH]c(-c2ccc(C(F)(F)F)cc2)nc2c1CSCC2` [XAV939, 3,5,7,8-Tetrahydro-2-[4-(trifluoromethyl)phenyl]-4H-thiopyrano[4,3-d]pyrimidin-4-one, reference compound], the “differentiation of posterior epiblast into PGCs” value (phase II: 3 days in PGC-specifying media after 12 hours WNT agonist (phase I), FIG. 1F) is “promotes differentiation of posterior epiblast into PGCs”.
For “EGF: epidermal growth factor, UniProt P01133 (NSDSECPLSHDGYCLHDGVCMYIEALDKYACNCVVGYIGERCQYRDLKWWELR; UniProt P01133 971-1023, looked up)”, the “effect of absence of SCF and EGF on PGC differentiation” value was “superfluous”; the “requirement on the D0.5-D1.5 interval” value is given as “dispensable”. For the same compound, the “efficiency upon SCF/EGF subtraction” value (readout D3.5) is reported as “enhance efficiency”.
Regarding “LIF: LIF, commonly used to enhance PGC survival (Peprotech 300-05)”, the “requirement of LIF for the second differentiation stage” value (FIG. 5E) is “dispensable”. In addition, where the note is “LIF added during D0.5-3.5, readout D3.5, FIG. 5E”, the “efficiency upon addition of LIF” value was “does not improve efficiency”.
Consider “SCF: stem cell factor, also known as Kit ligand”, for which the “effect of absence of SCF and EGF on PGC differentiation” value is recorded as “superfluous”; the “requirement on the D0.5-D1.5 interval” value was “dispensable”. In addition, where the note is “readout D3.5”, the “efficiency upon SCF/EGF subtraction” value is on record as “enhance efficiency”.
